According to patent US20220194935A1, “PHENETHYL SUBSTITUTED IMIDAZO[4,5-C]QUINOLINE COMPOUNDS WITH AN N-1 BRANCHED GROUP” (3M INNOVATIVE PROPERTIES COMPANY, priority 2019, published 2022):

Test system: Human peripheral blood mononuclear cells (PBMC)
Assay: Cytokine Induction in Human Cells (PBMC), minimum effective concentration
Assay type: cell-based
Settings: 21-24 hours, lowest concentration giving at least 2× negative control, tested 0.01-30 micromolar; for MEC to Induce Cytokine, IFN-alpha: ELISA; for MEC to Induce Cytokine, IFN-gamma / MEC to Induce Cytokine, TNF-alpha: multiplex bead assay
Protocol: Whole blood was obtained from healthy human donors and collected by venipuncture into vacutainer tubes or syringes containing ethylene diamine tetraacetic acid (EDTA). Human peripheral blood mononuclear cells (PBMC) were purified from the whole blood by density gradient centrifugation. Histopaque 1077 (15 mL, Sigma, St. Louis, Mo.) was transferred to 6×50 mL sterile polypropylene conical tubes. The Histopaque was overlayed with 15-25 mL of blood diluted 1:2 in Hank's Balanced Salts Solution (HBSS) (Gibco, Life Technologies, Grand Island, N.Y.). The tubes were then centrifuged at 1370 revolutions per minute (rpm) for 30 minutes at 20° C., with no brake (400×g, GH 3.8A Rotor).
The interface (buffy coat) containing the PBMC was collected and placed in a new sterile 50 mL conical polypropylene centrifuge tube. The PBMC were mixed with an equal volume of HBSS (about 20 mL from the interface and about 20 mL of HBSS), and then centrifuged at 1090 rpm, 10 minutes, 20° C., with brake (270×g, GH 3.8A Rotor). After completing centrifugation, the cells were resuspended in 2-3mL ACK Red blood cell lysis buffer (ammonium chloride potassium solution, Gibco, Life Technologies) and incubated for 2-5 minutes at 20° C. Next, HBSS (40 mL) was added to the cells, and the sample was centrifuged at 270×g for 10 minutes at 20° C. The supernatant was decanted, and the cell pellet was resuspended in 5 mL AIM V Medium (Gibco, Life Technologies). Cell aggregates and debris were removed by filtering the cell solution through a BD Falcon 70 micron nylon cell strainer (BD Biosciences, San Jose, Calif.).
The number of viable cells was determined by counting with a Miltenyi FACS instrument (Miltenyi Biotec Inc., San Diego, Calif.) or by using a hemacytometer. For determining cell viability with a hemacytometer, the cells were diluted 1/10 in 0.4% trypan blue and HBSS (specifically, 50 microliter of trypan blue +40 microliter of HBSS +10 microliter of cell solution were added to a microfuge tube and mixed). Ten microliters of the diluted cells were then applied to the hemacytometer, and the number of viable PBMC were determined by microscopy.
The PBMC sample was then resuspended in 96-well plates at a concentration of 8×10^5 cells/well in 0.1 mL of AIM-V medium. Each compound was solubilized in dimethyl sulfoxide (DMSO) to create a 3 mM stock solution. The stock solution was then further diluted with AIM-V medium to prepare the serial dilutions. The diluted compound (100 microliters) was then transferred to the PBMCs to produce testing sets with final compound concentrations of 30, 10, 3.3, 1.1, 0.37, 0.12, 0.04, 0.01 micromolar. The plates also had both positive and negative controls. The negative control wells contained only AIM-V medium with no example compound. The positive control wells contained a control set of imiquimod serially diluted to concentrations of 30, 10, 3.3, 1.1, 0.37, 0.12, 0.04, 0.01 micromolar. The concentrations used in the control set were selected to match the concentrations used in the testing set. The plates were then cultured at 37° C./5% CO2 for 21-24 hours. Cell-free supernatants were harvested by centrifuging the 96-well plates at 2100 rpm, 23° C. for 10 minutes. Approximately 160 microliters of the supernatant was then stored in a NUNC 96-well plate, covered with the compression cap and stored at −80° C. until the cytokine analysis was done.
IFN-alpha cytokine levels (picograms/mL) were measured by ELISA (human IFN-alpha, pan specific, Mabtech, Cincinnati, Ohio). IFN-gamma and TNF-alpha levels (picograms/mL) were measured by multiplex bead assay (magnetic beads, R & D Systems, Minneapolis, Minn.) according to the manufacturer's instructions.
Specifically, the minimum effective concentration of each compound (micromolar) was determined as the lowest concentration of the compound that induced a measured cytokine response at a level ([…]) that was at least 2× greater than that observed with the negative control wells.

Structure (SMILES) | MEC to Induce Cytokine, IFN-alpha | MEC to Induce Cytokine, IFN-gamma | MEC to Induce Cytokine, TNF-alpha
Nc1nc2ccccc2c2c1ncn2CCc1ccccc1 [Comparative Example 1, 1-phenethyl-1H-imidazo[4,5-c]quinolin-4-amine, reference compound] | 1.1 µM | >30 µM | 1.1 µM
C[C@H](Cc1ccccc1)n1cnc2c(N)nc3ccccc3c21 [Example 1, 1-[(1R)-1-methyl-2-phenyl-ethyl]imidazo[4,5-c]quinolin-4-amine] | 0.37 µM | 1.1 µM | 0.12 µM
CCCC[C@H](Cc1ccccc1)n1cnc2c(N)nc3ccccc3c21 [Example 2, 1-[(1R)-1-benzylpentyl]imidazo[4,5-c]quinolin-4-amine] | ≤0.01 µM | ≤0.01 µM | ≤0.01 µM
COC[C@@H](Cc1ccccc1)n1cnc2c(N)nc3ccccc3c21 [Example 3, 1-[(1R)-1-benzyl-2-methoxy-ethyl]imidazo[4,5-c]quinolin-4-amine] | 1.1 µM | >30 µM | 1.1 µM
CCOC[C@@H](Cc1ccccc1)n1cnc2c(N)nc3ccccc3c21 [Example 4, 1-[(1R)-1-benzyl-2-ethoxy-ethyl]imidazo[4,5-c]quinolin-4-amine] | 0.37 µM | >30 µM | 0.37 µM
COC[C@H](Cc1ccccc1)n1cnc2c(N)nc3ccccc3c21 [Example 5, 1-[(1S)-1-benzyl-2-methoxy-ethyl]imidazo[4,5-c]quinolin-4-amine] | ≤0.01 µM | ≤0.01 µM | ≤0.01 µM
CCOC[C@H](Cc1ccccc1)n1cnc2c(N)nc3ccccc3c21 [Example 6, 1-[(1S)-1-benzyl-2-ethoxy-ethyl]imidazo[4,5-c]quinolin-4-amine] | ≤0.01 µM | ≤0.01 µM | ≤0.01 µM
CCCCOc1ccc(C[C@@H](CCCC)n2cnc3c(N)nc4ccccc4c32)cc1 [Example 7, 1-[(1R)-1-[(4-butoxyphenyl)methyl]pentyl]imidazo[4,5-c]quinolin-4-amine] | ≤0.01 µM | ≤0.01 µM | ≤0.01 µM
